# Patent US9155714B2, “Compositions comprising an aromatic alcohol and a TRPV-1 antagonist, and uses thereof” (JOHNSON & JOHNSON CONSUMER INC., priority 2013, dated 2015)
# Where “and” joins values, the source holds several entries; their conditions need not be identical. Equal values may be shown once.
# Tests used:
# Format in all cases: cell-based
# [1] = target: T1, human vanilloid receptor-1 (TRPV-1) (Homo sapiens, UniProt Q8NER1); test: Calcium Flux Test, inhibition of phenoxyethanol-induced calcium flux
# T1 construct: host or cells: HEK293
# Protocol: (§1) The Calcium Flux Test is performed in the following manner: Recombinant HEK293 cells expressing human vanilloid receptor-1 (TRPV-1; accession number AF196175, EMD Millipore, Billerica, Mass.) are grown in D-MEM/F-12 media (Life Technologies, Grand Island, N.Y.) supplemented with 10% fetal bovine serum, 1% non essential amino acids and 400 μg/mL Geneticin (Gibco, Life Technologies). Cells are plated at a concentration of 15,000 cells per well on poly-D-lysine-coated 384 well plates and incubated overnight at 5% CO2 and 37° C. After incubation, culture media is removed from the wells and replaced with 50 μL per well of Fluo-8 No Wash dye solution (#36315, AAT Bioquest, Sunnyvale, Calif.). The Fluo-8 dye solution is prepared by mixing 20 uL of Fluo-8 NW with 30 mL of 0.33× Pluronic® F127 Plus (BASF of Ludwigshafen, Germany) in assay buffer (1×HBSS+2% of HEPES). Fluo-8 dye is incubated for 30 minutes at room temperature. Intracellular calcium (Ca^2+) flux is monitored upon exposure to aromatic alcohol in DMSO vehicle by measuring fluorescence intensity at Ex/Em 490/525 on a Functional Drug Screening System (FDSS; Hamamatsu, […]). Measurements are taken every second for a period of 4 minutes. […] Statistical differences are obtained using One Way ANOVA with Tukey Post-hoc test; statistical significance is defined as P≦0.05.
# (§2) The Maximum RFU obtained with a given concentration of aromatic alcohol is compared with the Maximum RFU obtained using the same concentration of aromatic alcohol but pretreated with the TRPV-1 antagonist for 5 minutes after dye incubation. Percent inhibition achieved with the TRPV-1 antagonist is calculated as: 100*((Maximum RFU of aromatic alcohol−Maximum RFU of aromatic alcohol pretreated with TRPV-1 antagonist)/Maximum RFU of aromatic alcohol).
# (§3) Capsazepine and AMG9810 were tested for activity as TRPV-1 antagonists using the Calcium Flux Test using two different concentrations of phenoxyethanol in DMSO. They were also tested using the Calcium Flux Test in which phenoxyethanol was replaced with capsaicin. […]
# [2] = target: T1, human vanilloid receptor-1 (TRPV-1); test: Calcium Flux Test, phenoxyethanol replaced with capsaicin (capsaicin-induced calcium flux)
# Protocol: as §1, §2, §3
# [3] = target: T1, human vanilloid receptor-1 (TRPV-1); test: Calcium Flux Test, activity as TRPV-1 agonist
# Protocol: as §1
# (§4) Phenoxyethanol was tested at a series of concentrations in DMSO for activity as a TRPV-1 agonist according to the Calcium Flux Test described above. Capsaicin was used as a positive control.
# (§5) Maximum RFU values for treatment with phenoxyethanol or capsaisin were compared to the Maximum RFU for a DMSO vehicle alone. Concentrations of phenoxyethanol and capsaicin are reported in milimolar (mM) and nanomolar (nM), respectively.
# (§6) Benzyl alcohol and sodium bicarbonate were tested using the Calcium Flux Test.
# (§7) Benzyl alcohol and phenethyl alcohol were tested at a series of concentrations in DMSO for activity as a TRPV-1 agonist as described in Example 1. Concentrations of benzyl alcohol and phenethyl alcohol are reported in units of % w/v.
# [4] = target: T1, human vanilloid receptor-1 (TRPV-1); test: Calcium Flux Test, activity as TRPV-1 agonist; parameters: key: **: Statistically significant; n/s: Not statistically significant
# Protocol: as §1, §4, §5, §6, §7
# [5] = AMG9810 0.6104 nM, phenoxyethanol 2 mM
# [6] = AMG9810 2 nM, phenoxyethanol 2 mM
# [7] = AMG9810 10 nM, phenoxyethanol 2 mM
# [8] = AMG9810 39 nM, phenoxyethanol 2 mM
# [9] = AMG9810 39 nM, phenoxyethanol 3 mM
# [10] = AMG9810 156 nM, phenoxyethanol 2 mM
# [11] = AMG9810 156 nM, phenoxyethanol 3 mM
# [12] = AMG9810 625 nM, phenoxyethanol 2 mM
# [13] = AMG9810 625 nM, phenoxyethanol 3 mM
# [14] = AMG9810 2500 nM, phenoxyethanol 2 mM
# [15] = AMG9810 2500 nM, phenoxyethanol 3 mM
# [16] = AMG9810 10000 nM, phenoxyethanol 2 mM
# [17] = AMG9810 10000 nM, phenoxyethanol 3 mM
# [18] = AMG9810 625 nM, capsaicin 100 nM
# [19] = AMG9810 625 nM, capsaicin 300 nM
# [20] = AMG9810 2500 nM, capsaicin 100 nM
# [21] = AMG9810 2500 nM, capsaicin 300 nM
# [22] = AMG9810 10000 nM, capsaicin 100 nM
# [23] = AMG9810 10000 nM, capsaicin 300 nM
# T1 sequence (Q8NER1 whole entry): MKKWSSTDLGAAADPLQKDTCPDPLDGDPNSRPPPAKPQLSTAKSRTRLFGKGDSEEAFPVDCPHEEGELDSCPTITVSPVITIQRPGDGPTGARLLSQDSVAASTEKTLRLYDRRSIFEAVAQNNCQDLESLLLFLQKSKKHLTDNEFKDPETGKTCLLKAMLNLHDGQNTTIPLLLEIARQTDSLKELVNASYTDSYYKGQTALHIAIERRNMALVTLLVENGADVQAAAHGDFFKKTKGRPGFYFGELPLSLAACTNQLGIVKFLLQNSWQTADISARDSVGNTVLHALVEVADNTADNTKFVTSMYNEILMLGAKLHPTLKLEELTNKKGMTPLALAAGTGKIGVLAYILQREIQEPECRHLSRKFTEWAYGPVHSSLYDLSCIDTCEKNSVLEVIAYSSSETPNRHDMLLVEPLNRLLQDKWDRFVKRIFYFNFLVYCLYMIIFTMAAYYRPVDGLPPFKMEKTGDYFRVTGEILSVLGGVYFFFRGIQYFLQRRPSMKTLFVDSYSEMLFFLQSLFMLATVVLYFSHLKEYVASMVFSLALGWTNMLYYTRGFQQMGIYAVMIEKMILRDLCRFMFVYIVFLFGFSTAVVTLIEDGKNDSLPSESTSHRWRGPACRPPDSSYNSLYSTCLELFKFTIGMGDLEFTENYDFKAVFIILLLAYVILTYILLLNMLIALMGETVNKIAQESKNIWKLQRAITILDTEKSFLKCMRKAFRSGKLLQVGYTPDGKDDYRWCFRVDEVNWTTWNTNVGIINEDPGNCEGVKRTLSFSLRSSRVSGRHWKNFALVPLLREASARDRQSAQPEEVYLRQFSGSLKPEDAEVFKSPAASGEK
compound,measurement,setting,value
"CC(C)(C)c1ccc(/C=C/C(=O)Nc2ccc3c(c2)OCCO3)cc1 [AMG9810, (E)-3-(4-t-butylphenyl)-N-(2,3-dihydrobenzo[b][1,4]dioxin-6-yl)acrylamide]",Maximum RFU (mean ± SD),"[1]; AMG9810 0.1526 nM, phenoxyethanol 2 mM",261.54 ± 114.76 RFU
same,Maximum RFU (mean ± SD),"[1]; AMG9810 0.1526 nM, phenoxyethanol 3 mM",412.30 ± 110.68 RFU
same,Maximum RFU (mean ± SD),[1]; [5],189.72 ± 34.94 RFU
same,inhibition at 0.0006104 µM,[1]; [5],12.3%
same,Maximum RFU (mean ± SD),"[1]; AMG9810 0.6104 nM, phenoxyethanol 3 mM",405.29 ± 152.93 RFU
same,Maximum RFU (mean ± SD),[1]; [6],202.96 ± 18.01 RFU
same,inhibition at 0.002 µM,[1]; [6],6.2%
same,Maximum RFU (mean ± SD),"[1]; AMG9810 2 nM, phenoxyethanol 3 mM",265.02 ± 52.11 RFU
same,Maximum RFU (mean ± SD),[1]; [7],110.26 ± 27.80 RFU
same,inhibition at 0.01 µM,[1]; [7],49%
same,Maximum RFU (mean ± SD),"[1]; AMG9810 10 nM, phenoxyethanol 3 mM",315.60 ± 125.77 RFU
same,Maximum RFU (mean ± SD),[1]; [8],165.37 ± 162.35 RFU
same,inhibition at 0.039 µM,[1]; [8],23.6%
same,Maximum RFU (mean ± SD),[1]; [9],98.74 ± 23.34 RFU
same,inhibition at 0.039 µM,[1]; [9],56%
same,Maximum RFU (mean ± SD),[1]; [10],58.21 ± 5.97 RFU
same,inhibition at 0.156 µM,[1]; [10],73.1%
same,Maximum RFU (mean ± SD),[1]; [11],75.59 ± 10.97 RFU
same,inhibition at 0.156 µM,[1]; [11],66.3%
same,Maximum RFU (mean ± SD),[1]; [12],55.53 ± 8.48 RFU
same,inhibition at 0.625 µM,[1]; [12],74.3%
same,Maximum RFU (mean ± SD),[1]; [13],58.16 ± 1.97 RFU
same,inhibition at 0.625 µM,[1]; [13],74.1%
same,Maximum RFU (mean ± SD),[1]; [14],58.00 ± 5.34 RFU
same,inhibition at 2.5 µM,[1]; [14],73.2%
same,Maximum RFU (mean ± SD),[1]; [15],68.59 ± 4.15 RFU
same,inhibition at 2.5 µM,[1]; [15],69.4%
same,Maximum RFU (mean ± SD),[1]; [16],59.78 ± 3.84 RFU
same,inhibition at 10 µM,[1]; [16],72.4%
same,Maximum RFU (mean ± SD),[1]; [17],65.74 ± 4.33 RFU
same,inhibition at 10 µM,[1]; [17],70.7%
same,Maximum RFU (mean ± SD),"[2]; AMG9810 39 nM, capsaicin 100 nM",942.69 ± 88.43 RFU
same,Maximum RFU (mean ± SD),"[2]; AMG9810 39 nM, capsaicin 300 nM",975.35 ± 32.01 RFU
same,Maximum RFU (mean ± SD),"[2]; AMG9810 156 nM, capsaicin 100 nM",916.79 ± 31.53 RFU
same,Maximum RFU (mean ± SD),"[2]; AMG9810 156 nM, capsaicin 300 nM",958.56 ± 16.66 RFU
same,Maximum RFU (mean ± SD),[2]; [18],735.36 ± 114.75 RFU
same,inhibition at 0.625 µM,[2]; [18],13.4%
same,Maximum RFU (mean ± SD),[2]; [19],747.36 ± 77.35 RFU
same,inhibition at 0.625 µM,[2]; [19],14.6%
same,Maximum RFU (mean ± SD),[2]; [20],85.41 ± 20.60 RFU
same,inhibition at 2.5 µM,[2]; [20],90%
same,Maximum RFU (mean ± SD),[2]; [21],78.33 ± 46.56 RFU
same,inhibition at 2.5 µM,[2]; [21],91%
same,Maximum RFU (mean ± SD),[2]; [22],47.00 ± 11.29 RFU
same,inhibition at 10 µM,[2]; [22],94.5%
same,Maximum RFU (mean ± SD),[2]; [23],44.15 ± 2.20 RFU
same,inhibition at 10 µM,[2]; [23],95%
"OCc1ccccc1 [Benzyl Alcohol, benzyl alcohol]",intracellular calcium flux in TRPV-1-transfected HEK cells (result in words),[3],dose dependent increases
same,Maximum RFU,[3]; benzyl alcohol 0.000161 % w/v alone (no antagonist),10.95 ± 0.23 RFU and 8.44 RFU and 16.17 ± 1.16 RFU
same,Maximum RFU (mean ± SD),[3]; benzyl alcohol 0.25 mM (Example 7),64.45 ± 28.15 RFU
same,Maximum RFU (mean ± SD),[3]; benzyl alcohol 0.5 mM (Example 7),104.45 ± 12.50 RFU
same,Maximum RFU (mean ± SD),[3]; benzyl alcohol 1 mM (Example 7),113.51 ± 4.70 RFU
same,Maximum RFU (mean ± SD),[3]; benzyl alcohol 2 mM (Example 7),135.45 ± 12.15 RFU
same,Maximum RFU (mean ± SD),[3]; benzyl alcohol 4 mM (Example 7),362.51 ± 126.09 RFU
same,Maximum RFU,[3]; benzyl alcohol 0.004357 % w/v alone (no antagonist),43.91 ± 3.74 RFU and 31.54 RFU and 55.75 ± 2.68 RFU
same,Maximum RFU,[3]; benzyl alcohol 0.013072 % w/v alone (no antagonist),160.8 ± 12.61 RFU and 93.35 RFU and 124.54 ± 13.18 RFU
same,Maximum RFU,[3]; benzyl alcohol 0.04 % w/v alone (no antagonist),608.23 ± 10.21 RFU and 410.41 RFU and 424.01 ± 2.92 RFU
same,Maximum RFU,[3]; benzyl alcohol 6.64E−07 % w/v alone (no antagonist),9.37 ± 1.66 RFU and 7.66 RFU and 13.85 ± 1.83 RFU
same,activity for TRPV-1 activation (result in words),"[3]; doses of 2 mM and below, Example 7",did not show statistically significant activity
same,P < 0.05 Compared to Vehicle,[4]; benzyl alcohol 0.25 mM,n/s
same,P < 0.05 Compared to Vehicle,[4]; benzyl alcohol 0.5 mM,n/s
same,P < 0.05 Compared to Vehicle,[4]; benzyl alcohol 1 mM,n/s
same,P < 0.05 Compared to Vehicle,[4]; benzyl alcohol 2 mM,n/s
same,P < 0.05 Compared to Vehicle,[4]; benzyl alcohol 4 mM,**
"CN(C)CCOC(c1ccccc1)c1ccccc1 [Diphenhydramine, diphenhydramine]",reducing phenoxyethanol-induced calcium flux (result in words),[1]; TRPV-1-expressing HEK293 cells,"none of hydrocortisone, diphenhydramine or lidocaine were effective"
same,Maximum RFU (mean ± SD),"[1]; compound 25 μM, phenoxyethanol 2 mM",158.25 ± 0.69 RFU
same,Maximum RFU (mean ± SD),"[1]; compound 25 μM, phenoxyethanol 3 mM",312.62 ± 67.77 RFU
same,Maximum RFU (mean ± SD),"[1]; compound 100 μM, phenoxyethanol 2 mM",141.61 ± 33.91 RFU
same,Maximum RFU (mean ± SD),"[1]; compound 100 μM, phenoxyethanol 3 mM",195.47 ± 53.34 RFU
same,Maximum RFU (mean ± SD),"[2]; compound 100 μM, capsaicin 300 nM",825.37 ± 9.95 RFU
